Results from ChEMBL document CHEMBL1201862, “PubChem BioAssay data set” (2004).
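Growth conditions: 96-well plates. Treatment: test compound, 48 hours, 5 concentrations. Analysis: linear interpolation between bracketing concentrations; unreached endpoints set to highest concentration. GI50 = concentration required for 50% inhibition of growth.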 Calls of active or inactive are those of the source. No stated cut-off is given here; in the data, active = GI50 up to about 1.1 µM and inactive = higher.

What was measured:
Assay in all cases: inhibition of tumour cell growth, NCI panel, 48 h
[1] = system: U-251
[2] = system: UACC-257
[3] = system: HCT-15
[4] = system: SK-MEL-5
[5] = system: OVCAR-4
[6] = system: CAKI-1
[7] = system: SR
[8] = system: HT-29
[9] = system: MDA-MB-435
[10] = system: SK-OV-3
[11] = system: SF-295
[12] = system: MDA-MB-231
[13] = system: BT-549
[14] = system: RPMI-8226
[15] = system: SN12C
[16] = system: SK-MEL-2
[17] = system: SW-620
[18] = system: SF-268
[19] = system: PC-3
[20] = system: OVCAR-3

Row | Structure (SMILES) | GI50 [1] | GI50 [2] | GI50 [3] | GI50 [4] | GI50 [5] | GI50 [6] | GI50 [7] | GI50 [8] | GI50 [9] | GI50 [10] | GI50 [11] | GI50 [12] | GI50 [13] | GI50 [14] | GI50 [15] | GI50 [16] | GI50 [17] | GI50 [18] | GI50 [19] | GI50 [20]
1 | Cc1ccccc1NC(=O)O/N=C(\Cl)C(C)C | 19.4 µM (inactive) | 14.9 µM (inactive) | 2.09 µM | 11 µM (inactive) | 8.45 µM (inactive) | 1.77 µM (inactive) | 2.85 µM (inactive) | 5.56 µM (inactive) | 13.2 µM (inactive) | 18.7 µM (inactive) | 18.9 µM (inactive) | 17.7 µM (inactive) | 5.32 µM (inactive) | 1.86 µM (inactive) | 1.62 µM (inactive) | 17.8 µM (inactive) | 1.82 µM (inactive) | 19.3 µM (inactive) | 17.1 µM (inactive) | 4.29 µM (inactive)
2 | O=C1c2c(Br)sc(Br)c2[C@@H](NC(=O)C(F)(F)F)C1Br (some centres undefined) | 2.93 µM (inactive) | 1.51 µM (inactive) | 1.83 µM | 2.8 µM (inactive) | 2.31 µM (inactive) | 3.6 µM (inactive) | 2.07 µM (inactive) | 2.37 µM (inactive) | 2.13 µM (inactive) | 18.7 µM (inactive) | 16.8 µM (inactive) | 2.79 µM (inactive) | 3.03 µM (inactive) | 2.33 µM (inactive) | 2.72 µM (inactive) | 5.82 µM (inactive) | 2.7 µM (inactive) | 3.71 µM (inactive) | 4.3 µM (inactive) | 3.32 µM (inactive)
3 | O=[N+]([O-])c1cccc(/C=N/NC2=CS(=O)(=O)C=C2)c1 | > 100 µM (inactive) | > 100 µM (inactive) | > 100 µM | > 100 µM (inactive) | > 100 µM (inactive) | > 100 µM (inactive) | > 100 µM (inactive) | > 100 µM (inactive) | > 100 µM (inactive) | > 100 µM (inactive) | > 100 µM (inactive) | > 100 µM (inactive) | 78.7 µM (inactive) | > 100 µM (inactive) | > 100 µM (inactive) | > 100 µM (inactive) | > 100 µM (inactive) | > 100 µM (inactive) | > 100 µM (inactive) | > 100 µM (inactive)
4 | Cc1c(-c2ccc(O)cc2)n(CCCCCCNCCOC(=O)NCCCc2ccc(N(CCCl)CCCl)cc2)c2ccc(O)cc12 | 3.07 µM (inactive) | 1.89 µM (inactive) | 1.79 µM | 1.96 µM (inactive) | 1.9 µM (inactive) | 11.1 µM (inactive) | 0.809 µM (active) | 1.59 µM (inactive) | 1.69 µM (inactive) | 10.2 µM (inactive) | 2.21 µM (inactive) | 1.83 µM (inactive) | 12.4 µM (inactive) | 1.31 µM (inactive) | 2.4 µM (inactive) | 10.6 µM (inactive) | 2.15 µM (inactive) | 1.52 µM (inactive) | 2.47 µM (inactive) | 2.16 µM (inactive)
5 | COc1cc2c(cc1OC)OC(c1c(OC)ccc(OC)c1O)CC2 (centres undefined) | > 100 µM (inactive) | > 100 µM (inactive) | > 100 µM | 76.2 µM (inactive) | 87.3 µM (inactive) | > 100 µM (inactive) | > 100 µM (inactive) | > 100 µM (inactive) | > 100 µM (inactive) | > 100 µM (inactive) | 71.3 µM (inactive) | > 100 µM (inactive) | > 100 µM (inactive) | 37.2 µM (inactive) |  | > 100 µM (inactive) | > 100 µM (inactive) | > 100 µM (inactive) | > 100 µM (inactive) | 35.1 µM (inactive)
6 | O=C1CSC(c2ccccc2O)N1c1nc2cc3sc(N4C(=O)CSC4c4ccccc4O)nc3cc2s1 (centres undefined) | 36.3 µM (inactive) | > 36.3 µM (inactive) | 7.05 µM | 50.5 µM (inactive) | 44.1 µM (inactive) | 37.4 µM (inactive) | 7.71 µM (inactive) | 20 µM (inactive) | 34.3 µM (inactive) | > 100 µM (inactive) | > 100 µM (inactive) | > 57.8 µM (inactive) | 11.9 µM (inactive) | 32.1 µM (inactive) | > 40.5 µM (inactive) | > 100 µM (inactive) | 22.4 µM (inactive) | > 86.9 µM (inactive) | 45.7 µM (inactive) | > 100 µM (inactive)
7 | Fc1ccc2c(c1)nc1n2C(c2c(Cl)cccc2Cl)SC1 (centres undefined) | 13.1 µM (inactive) | 13.5 µM (inactive) | 11.7 µM | 8.71 µM (inactive) | 15 µM (inactive) | 12.3 µM (inactive) | 3.94 µM (inactive) | 16 µM (inactive) | 11.4 µM (inactive) | 14.8 µM (inactive) | 13.7 µM (inactive) | 15.3 µM (inactive) | 16.7 µM (inactive) | 13.4 µM (inactive) | 17.3 µM (inactive) | 15 µM (inactive) | 13.2 µM (inactive) | 15.8 µM (inactive) | 14.7 µM (inactive) | 12.9 µM (inactive)
